Numbered stars: 1 amine (or outer) side, 2 acyl side, 3 side chain; on linkers, the order of the positions; unused ones are H or OH. Bridge positions count the residues as written; N and C are the ends. Square brackets hold non-standard residues; d marks the D form. Side chains are listed from the residue outwards. Peptide text beside a SMILES is read from it. * marks the point of attachment. C20 diacid = O=C(O)CCCCCCCCCCCCCCCCCCC(=O)*; γGlu = O=C(O)[C@H](CCC(=O)[*:2])N[*:1]; βAsp = O=C(O)[C@H](CC(=O)[*:2])N[*:1]; AEEA = NCCOCCOCC(=O)O
Tests used:
human amylin receptor = target: T1, human amylin receptor (Homo sapiens, UniProt O60896+P30988); assay: Luciferase assay of amylin derivatives in amylin receptor/CRE-luc CHO cell line; type: cell-based; conditions: CHO-K1/Ga15/AMY3 CRE-luc cells, 24 hours incubation, F12 medium containing 10% FBS; read-out: EC50
T1 construct: host or cells: CHO-K1/Ga15/AMY3 cells, further stably transfected with a CRE-luciferase plasmid
T1 sequence (P30988 25-474): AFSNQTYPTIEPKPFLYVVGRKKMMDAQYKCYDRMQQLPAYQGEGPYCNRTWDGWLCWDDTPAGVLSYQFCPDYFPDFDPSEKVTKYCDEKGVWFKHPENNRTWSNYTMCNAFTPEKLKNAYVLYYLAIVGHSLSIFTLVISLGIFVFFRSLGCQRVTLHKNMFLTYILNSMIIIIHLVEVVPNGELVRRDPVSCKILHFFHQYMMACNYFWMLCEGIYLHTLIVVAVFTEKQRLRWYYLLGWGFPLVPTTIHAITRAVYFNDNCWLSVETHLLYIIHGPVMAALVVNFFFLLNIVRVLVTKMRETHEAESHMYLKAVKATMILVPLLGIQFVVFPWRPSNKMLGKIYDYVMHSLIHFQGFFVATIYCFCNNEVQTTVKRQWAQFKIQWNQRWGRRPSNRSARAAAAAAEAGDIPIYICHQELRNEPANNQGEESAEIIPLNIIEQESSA
T1 sequence (O60896 24-148 partner): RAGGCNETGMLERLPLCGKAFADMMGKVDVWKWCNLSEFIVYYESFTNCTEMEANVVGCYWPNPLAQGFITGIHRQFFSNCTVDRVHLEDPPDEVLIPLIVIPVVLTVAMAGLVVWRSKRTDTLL
Method: The experiment was intended to detect the activity or efficacy of the amylin derivatives on a human amylin receptor in vitro by luciferase assay.
50 μL of growth medium (F12 medium containing 10% FBS) was added into each well of a white 96-well plate, and the stably transfected amylin/CRE-lue CHO cells were inoculated into the white 96-well plate at a density of about 20,000 cells/well for activity determination.

[1] = Freeze-thaw stability of derivatives (freeze-thaw yield by liquid chromatography); type: physicochemical
Method: The freeze-dried powder of the polypeptide analog derivative prepared in Example 1 was mixed with a buffer solution according to a mass-volume ratio of 0.2 mg/ml, the polypeptide was dissolved with 20 mM phosphate buffer solution (PB) (pH 7.0), the sample was stored at −20° C. for overnight storage, and then the sample was taken out to be restored to room temperature for thawing. During the experiment, property changes of the polypeptide after dissolution and freezing and thawing were observed and recorded respectively, and concentrations of the polypeptide before and after the freezing and thawing were detected by the following liquid chromatography method: Materials and equipment: high-performance liquid chromatographic instrument (Agilent 1200), ultrapure water (18.2 MΩ self-manufactured ultrapure water), acetonitrile (HPLC grade), and trifluoroacetic acid (HPLC grade); and reversed-phase chromatographic column: […] A sample to be tested was centrifuged at 10,000 rpm and 4° C. for 3 minutes, and a supernatant was taken and added into a liquid-phase sample injection bottle. […] A freeze-thaw yield was calculated by the following formula: freeze-thaw yield=concentration of polypeptide after the freezing and thawing/concentration of polypeptide before the freezing and thawing.

| EC50 (human amylin receptor) [nM] | Dissolution property ([1]; appearance after dissolution at 0.2 mg/ml in 20 mM phosphate buffer solution (PB) (pH 7.0)) | Freeze storage property ([1]; appearance after overnight storage at −20° C. and thawing to room temperature, 0.2 mg/ml in 20 mM PB (pH 7.0)) | Compound |
| --- | --- | --- | --- |
| 0.042 | Clear | Clear | CC[C@H](C)[C@H](NC(=O)[C@@H]1CCCN1C(=O)CNC(=O)[C@H](CC(C)C)NC(=O)[C@H](CC(N)=O)NC(=O)[C@H](CCCCNC(=O)COCCOCCNC(=O)COCCOCCNC(=O)CC[C@H](NC(=O)CCCCCCCCCCCCCCCCCCC(=O)O)C(=O)O)NC(=O)[C@H](CO)NC(=O)[C@H](CO)NC(=O)[C@H](Cc1c[nH]cn1)NC(=O)[C@H](CCCNC(=N)N)NC(=O)[C@H](CC(C)C)NC(=O)[C@H](Cc1ccccc1)NC(=O)[C@H](CCC(=O)O)NC(=O)[C@H](C)NC(=O)[C@H](CC(C)C)NC(=O)[C@H](CCCNC(=N)N)NC(=O)[C@H](CCC(N)=O)NC(=O)[C@@H](NC(=O)[C@H](C)NC(=O)[C@@H]1CSSC[C@H](NC(=O)[C@@H](N)CCCNC(=N)N)C(=O)N[C@@H](CC(N)=O)C(=O)N[C@@H]([C@@H](C)O)C(=O)N[C@@H](C)C(=O)N[C@@H]([C@@H](C)O)C(=O)N1)[C@@H](C)O)C(=O)N[C@@H](CC(C)C)C(=O)N1CCC[C@H]1C(=O)N1CCC[C@H]1C(=O)N[C@H](C(=O)N[C@@H](CC(N)=O)C(=O)N[C@H](C(=O)NCC(=O)N[C@@H](CO)C(=O)N[C@@H](CC(N)=O)C(=O)N[C@H](C(=O)N1CCC[C@H]1C(N)=O)[C@@H](C)O)C(C)C)[C@@H](C)O [PD001] (H-RCNTATCATQRLAEFLRHSSK([AEEA-AEEA-γGlu-C20 diacid])NLGPILPPTNVGSNTP-NH2; disulfide 2-7 (inferred); N-terminus assumed) |
| 0.074 |  |  | CC[C@H](C)[C@H](NC(=O)[C@@H]1CCCN1C(=O)[C@H](CCCCN)NC(=O)[C@H](CC(C)C)NC(=O)[C@H](CC(N)=O)NC(=O)[C@H](CC(N)=O)NC(=O)[C@H](CO)NC(=O)[C@H](CO)NC(=O)[C@H](Cc1c[nH]cn1)NC(=O)[C@H](CCCNC(=N)N)NC(=O)[C@H](CC(C)C)NC(=O)[C@H](Cc1ccccc1)NC(=O)[C@H](CC(=O)O)NC(=O)[C@H](C)NC(=O)[C@H](CC(C)C)NC(=O)[C@H](CCCNC(=N)N)NC(=O)[C@H](CCC(N)=O)NC(=O)[C@@H](NC(=O)[C@H](C)NC(=O)[C@@H]1CSSC[C@H](NC(=O)[C@H](CCCCN)NC(=O)COCCOCCNC(=O)COCCOCCNC(=O)[C@H](CC(=O)O)NC(=O)CCCCCCCCCCCCCCCCCCC(=O)O)C(=O)N[C@@H](CC(N)=O)C(=O)N[C@@H]([C@@H](C)O)C(=O)N[C@@H](C)C(=O)N[C@@H]([C@@H](C)O)C(=O)N1)[C@@H](C)O)C(=O)N[C@@H](CC(C)C)C(=O)N1CCC[C@H]1C(=O)N1CCC[C@H]1C(=O)N[C@H](C(=O)N[C@@H](CC(N)=O)C(=O)N[C@H](C(=O)NCC(=O)N[C@@H](CO)C(=O)N[C@@H](CC(N)=O)C(=O)N[C@H](C(=O)N1CCC[C@H]1C(N)=O)[C@@H](C)O)C(C)C)[C@@H](C)O [PD193] ({C20 diacid}-D[AEEA][AEEA]KCNTATCATQRLADFLRHSSNNLKPILPPTNVGSNTP-NH2; disulfide 5-10 (inferred)) |
| 0.074 |  |  | CC[C@H](C)[C@H](NC(=O)[C@@H]1CCCN1C(=O)[C@H](CCCCN)NC(=O)[C@H](CC(C)C)NC(=O)[C@H](CC(N)=O)NC(=O)[C@H](CC(N)=O)NC(=O)[C@H](CO)NC(=O)[C@H](CO)NC(=O)[C@H](Cc1c[nH]cn1)NC(=O)[C@H](CCCNC(=N)N)NC(=O)[C@H](CC(C)C)NC(=O)[C@H](Cc1ccccc1)NC(=O)[C@H](CC(=O)O)NC(=O)[C@H](C)NC(=O)[C@H](CC(C)C)NC(=O)[C@H](CCCNC(=N)N)NC(=O)[C@H](CCC(N)=O)NC(=O)[C@@H](NC(=O)[C@H](C)NC(=O)[C@@H]1CSSC[C@H](NC(=O)[C@H](CCCCN)NC(=O)[C@H](CC(=O)O)NC(=O)COCCOCCNC(=O)COCCOCCNC(=O)CCCCCCCCCCCCCCCCCCC(=O)O)C(=O)N[C@@H](CC(N)=O)C(=O)N[C@@H]([C@@H](C)O)C(=O)N[C@@H](C)C(=O)N[C@@H]([C@@H](C)O)C(=O)N1)[C@@H](C)O)C(=O)N[C@@H](CC(C)C)C(=O)N1CCC[C@H]1C(=O)N1CCC[C@H]1C(=O)N[C@H](C(=O)N[C@@H](CC(N)=O)C(=O)N[C@H](C(=O)NCC(=O)N[C@@H](CO)C(=O)N[C@@H](CC(N)=O)C(=O)N[C@H](C(=O)N1CCC[C@H]1C(N)=O)[C@@H](C)O)C(C)C)[C@@H](C)O [PD194] ({C20 diacid-AEEA-AEEA}-DKCNTATCATQRLADFLRHSSNNLKPILPPTNVGSNTP-NH2; disulfide 3-8 (inferred)) |
| 0.025 |  |  | CC[C@H](C)[C@H](NC(=O)[C@@H]1CCCN1C(=O)[C@H](CCCCN)NC(=O)[C@H](CC(C)C)NC(=O)[C@H](CC(N)=O)NC(=O)[C@H](CC(N)=O)NC(=O)[C@H](CO)NC(=O)[C@H](CO)NC(=O)[C@H](Cc1c[nH]cn1)NC(=O)[C@H](CCCNC(=N)N)NC(=O)[C@H](CC(C)C)NC(=O)[C@H](Cc1ccccc1)NC(=O)[C@H](CC(=O)O)NC(=O)[C@H](C)NC(=O)[C@H](CC(C)C)NC(=O)[C@H](CCCNC(=N)N)NC(=O)[C@H](CCC(N)=O)NC(=O)[C@@H](NC(=O)[C@H](C)NC(=O)[C@@H]1CSSC[C@H](NC(=O)[C@H](CCCCN)NC(=O)COCCOCCNC(=O)COCCOCCNC(=O)C[C@H](NC(=O)CCCCCCCCCCCCCCCCCCC(=O)O)C(=O)O)C(=O)N[C@@H](CC(N)=O)C(=O)N[C@@H]([C@@H](C)O)C(=O)N[C@@H](C)C(=O)N[C@@H]([C@@H](C)O)C(=O)N1)[C@@H](C)O)C(=O)N[C@@H](CC(C)C)C(=O)N1CCC[C@H]1C(=O)N1CCC[C@H]1C(=O)N[C@H](C(=O)N[C@@H](CC(N)=O)C(=O)N[C@H](C(=O)NCC(=O)N[C@@H](CO)C(=O)N[C@@H](CC(N)=O)C(=O)N[C@H](C(=O)N1CCC[C@H]1C(N)=O)[C@@H](C)O)C(C)C)[C@@H](C)O [PD195] ({C20 diacid-βAsp-AEEA-AEEA}-KCNTATCATQRLADFLRHSSNNLKPILPPTNVGSNTP-NH2; disulfide 2-7 (inferred)) |
| 0.025 |  |  | CC[C@H](C)[C@H](NC(=O)[C@@H]1CCCN1C(=O)[C@H](CCCNC(=N)N)NC(=O)[C@H](CC(C)C)NC(=O)[C@H](CC(N)=O)NC(=O)[C@H](CC(N)=O)NC(=O)[C@H](CO)NC(=O)[C@H](CO)NC(=O)[C@H](Cc1c[nH]cn1)NC(=O)[C@H](CCCNC(=N)N)NC(=O)[C@H](CC(C)C)NC(=O)[C@H](Cc1ccccc1)NC(=O)[C@H](CC(=O)O)NC(=O)[C@H](C)NC(=O)[C@H](CC(C)C)NC(=O)[C@H](CCCNC(=N)N)NC(=O)[C@H](CCC(N)=O)NC(=O)[C@@H](NC(=O)[C@H](C)NC(=O)[C@@H]1CSSC[C@H](NC(=O)[C@H](CCCNC(=N)N)NC(=O)CC[C@H](NC(=O)CCCCCCCCCCCCCCCCCCC(=O)O)C(=O)O)C(=O)N[C@@H](CC(N)=O)C(=O)N[C@@H]([C@@H](C)O)C(=O)N[C@@H](C)C(=O)N[C@@H]([C@@H](C)O)C(=O)N1)[C@@H](C)O)C(=O)N[C@@H](CC(C)C)C(=O)N1CCC[C@H]1C(=O)N1CCC[C@H]1C(=O)N[C@H](C(=O)N[C@@H](CC(N)=O)C(=O)N[C@H](C(=O)NCC(=O)N[C@@H](CO)C(=O)N[C@@H](CC(N)=O)C(=O)N[C@H](C(=O)N1CCC[C@H]1C(N)=O)[C@@H](C)O)C(C)C)[C@@H](C)O [PD197] ({C20 diacid-γGlu}-RCNTATCATQRLADFLRHSSNNLRPILPPTNVGSNTP-NH2; disulfide 2-7 (inferred)) |
| 0.029 |  |  | {C20 diacid-γGlu}-KGGGGRCNTATCATQRLADFLRHSSNNLRPILPPTNVGSNTP-NH2 (disulfide 7-12 (inferred)) [PD198] |
